Read-outs that look alike come from different tables or passages of the source.
Legend:
Huh-7 cells = test: Alamar Blue cell confluency (cytotoxicity) in Huh-7 cells; assay type: cell-based
Procedure: For compound dilution, a medium containing 1:1000 gentamicin (G) and 1:300 fungizone (F) was used. Cells were seeded at 1 × 10^4 cells/well in 96-well plates and incubated at 37 °C with 5% CO2. After 24 h, compounds were diluted in RPMI+F+G, and after removal of the culture medium, added to the cells in triplicate. […] Following incubation for 1 h at 37 °C, 5% CO2, the cells were infected with luciferase-expressing P. berghei sporozoites (4,000 parasites per well) freshly extracted from the salivary glands of infected mosquitoes reared at the GIMM insectarium. The viability of Huh-7 cells exposed to the compounds was assessed 46 h later by the AlamarBlue assay (Invitrogen, UK) measurement, and parasite burden was measured 48 h after sporozoite addition using a bioluminescence assay (Biotium). IC50 values were calculated using GraphPad Prism through nonlinear regression analysis of normalized dose–response curves.
On the first day of the assay, the compounds were diluted at 10 and 1 μM in cRPMI medium supplemented with fungizone. and gentamicin. The culture medium of Huh-7 cells was removed and replaced with compound dilutions in triplicate. As a control, a DMSO dilution mimicking the highest compound concentration used was included. The cells were incubated for 1 h at 37 °C in a 5% CO2 atmosphere.
On the second day of the assay, compound toxicity was assessed by measuring cell confluency using the Alamar Blue/CellTiter Blue reagent. First, reagent aliquots stored at −20 °C were thawed and diluted at a 1:20 ratio in cRPMI. The culture medium was removed and replaced with 80 μL of the solution per well, followed by incubation at 37 °C and 5% CO2 for 1 h and 30 min. Fluorescence was measured using a plate reader with the Tecan i-Control software.

[1] = tested on: late-stage gametocytes (IV and V) of P. falciparum NF54; test: Late-stage gametocyte bioluminescence assay, luciferase-expressing NF54; assay type: cell-based, Plasmodium falciparum; settings: for Pf gametocytes inhibition: 1 μM
Procedure: For the in vitro culture of sexual stages of P. falciparum NF54 Luminescent strain, the Tripathi protocol was followed.
Parasite asexual stages were synchronized, and ring-stage parasites were incubated with a parasite-conditioned medium to induce stress and trigger gametocyte induction. After sexually committed parasites invaded new erythrocytes, N-acetylglucosamine was added to prevent further invasion and clear residual asexual parasites.
When a predominance of late stage (IV and V) gametocytes was identified and counted together, , the MACS magnetic system was used for gametocyte enrichment, as previously described. ,
The column content was eluted with RPMI medium into a 15 mL Falcon tube until translucent medium appeared, yielding ∼ 10 mL of eluate. The sample was centrifuged at 1500 rpm for 5 min at 37 °C, the supernatant discarded, and the pellet washed with preheated RPMI medium containing albumax. A 1 μL pellet sample was used to prepare a Giemsa-stained smear for gametocytaemia determination by counting 2000 cells. The gametocytemia for each assay were 71%, 64% and 31%. The remaining pellet was adjusted to 1 mL with RPMI medium containing 10% human serum at 37 °C. Total cell counts were performed using a Neubauer chamber with a 10X diluted sample.
Each well contained 200,000 gametocytes in 150 μL without erythrocytes. After 48 h of incubation, a luciferase kit (Promega) was used to reveal the assay. Eighty microliters of supernatant were discarded, and the pellet was homogenized in the remaining content. Forty microliters of the sample were transferred to a clear 96-well plate containing lysis solution (1X), gently mixed, and moved to a white-bottomed 96-well plate. Luciferase (40 μL) was added, and luminescence was measured using a microplate reader with a 10-s integration time.

[2] = tested on: Plasmodium falciparum 3D7 sensitive strain; test: SYBR Green growth assay, asexual blood stages, 3D7 sensitive strain; assay type: cell-based
Procedure: (§1) Parasite strains SB1-A6, 7G8, V1/S, and HB3 were acquired from BEI-MR4, while the ATQ R1 strain, carrying a V259L gene mutation, was generated in-house. […] Parasitemia was monitored using Giemsa-stained blood smears.
(§2) Bioassays were conducted with synchronized ring-stage parasites using sorbitol synchronization. Antimalarial compounds were evaluated in 96-well plates, and parasite growth was assessed using a SYBR Green-based fluorescence assay The assays were conducted when the parasite quantity reached at least 70% of the ring stage. Compounds were initially added at specific concentrations in the first wells, followed by serial dilution (1:2) ranging from 20 μM to 0.009 μM. Subsequently, a solution containing parasites in RPMI medium at a hematocrit of 2% was added to each well, and the parasites were then incubated for 72 h.
(§3) The IC50 values were determined using concentration–response curves generated in GraphPad 8 software. Additionally, the resistance index was calculated by comparing IC50 values obtained for the sensitive 3D7 strain with those of the resistant strains.

[3] = tested on: P. berghei hepatic stages; test: Hepatic stage bioluminescence assay, Huh-7 cells infected with luciferase-expressing sporozoites; assay type: cell-based, Plasmodium berghei; settings: read-out: IC50 (μM) Pb liver stages
Procedure: Huh-7 cells were cultured in RPMI 1640 medium (Sigma) supplemented with 10% v/v fetal bovine serum (FBS), 1% v/v penicillin/streptomycin, 1% v/v glutamine, 1% v/v nonessential amino acids, and 10 mM HEPES, pH 7. For compound dilution, a medium containing 1:1000 gentamicin (G) and 1:300 fungizone (F) was used. Cells were seeded at 1 × 10^4 cells/well in 96-well plates and incubated at 37 °C with 5% CO2. After 24 h, compounds were diluted in RPMI+F+G, and after removal of the culture medium, added to the cells in triplicate. DMSO and atovaquone were used as negative and positive controls, respectively. Following incubation for 1 h at 37 °C, 5% CO2, the cells were infected with luciferase-expressing P. berghei sporozoites (4,000 parasites per well) freshly extracted from the salivary glands of infected mosquitoes reared at the GIMM insectarium. The viability of Huh-7 cells exposed to the compounds was assessed 46 h later by the AlamarBlue assay (Invitrogen, UK) measurement, and parasite burden was measured 48 h after sporozoite addition using a bioluminescence assay (Biotium). IC50 values were calculated using GraphPad Prism through nonlinear regression analysis of normalized dose–response curves.

P. falciparum 7G8 strain = test: SYBR Green growth assay, asexual blood stages, 7G8 strain; assay type: cell-based, Plasmodium falciparum; settings: Plasmodium falciparum
Procedure: (§4) Healthy blood samples for parasite culture were obtained from voluntary donors (approved under protocol #28176720.9.0000.0011), processed to remove white blood cells, and stored at 2 °C–8 °C for up to 15 days. Parasite strains SB1-A6, 7G8, V1/S, and HB3 were acquired from BEI-MR4, while the ATQ R1 strain, carrying a V259L gene mutation, was generated in-house. Infected erythrocytes were cultured in RPMI 1640 medium supplemented with Hepes, sodium bicarbonate, glucose, Albumax, and gentamicin, […], and incubated in a 5% CO2, 5% O2, and 90% N2 gas mixture at 37 °C with daily medium changes. Parasitemia was monitored using Giemsa-stained blood smears.
as §2
(§5) To assess parasite growth, the culture medium was replaced with a lysis solution (Trisbase: 49.31%, EDTA: 30.00%, Saponin: 0.16%, Triton: 0.02%) containing the fluorescent dye SYBR Green (Sigma). After a 30 min incubation, fluorescence readings were taken to determine the 50% inhibitory concentration (IC50) of parasite growth. The IC50 values were determined using concentration–response curves generated in GraphPad 8 software. Additionally, the resistance index was calculated by comparing IC50 values obtained for the sensitive 3D7 strain with those of the resistant strains.

P. falciparum HB3 strain = test: SYBR Green growth assay, asexual blood stages, HB3 strain; assay type: cell-based, Plasmodium falciparum; settings: Plasmodium falciparum
Procedure: as §1, §2, §3

[4] = tested on: P. falciparum V1/S strain; test: microbe, parasite or virus in culture; assay type: cell-based, Plasmodium falciparum; settings: Plasmodium falciparum, 72 h
Procedure: as §4, §2, §5

[5] = tested on: P. berghei exflagellation centers; test: Ex vivo exflagellation assay, blood of P. berghei infected mice; assay type: cell-based, Plasmodium berghei; settings: 5 μM, 15 min incubation
Procedure: For the ex vivo assays, a female CD1 mouse between 4 and 5 weeks of age (n = 3) was infected with P. berghei. After 4 days, when the presence of parasites (sexual phases) in the blood was observed by Giemsa-stained blood smear microscopy, the total blood from the mouse was collected into a preheated tube at 37 °C containing RPMI medium supplemented with 20% Fetal Bovine Serum (FBS) and 200 units/mL of heparin as an anticoagulant. The tube was maintained at 37 °C and centrifuged at 1500 rpm for 5 min. The supernatant was discarded, and the blood was resuspended in 20 mL of RPMI medium supplemented with 20% FBS.
One milliliter of resuspended blood was added to each well of a 6-well plate containing 5 μM methylene blue (positive control), test compound 1 at 10 μM and 1 μM, and DMSO (negative control). After 15 min, the wells were homogenized, and 10 μL of the content was collected into an Eppendorf tube and incubated at room temperature for another 15 min. The sample was then transferred to a Neubauer chamber, and exflagellation centers were counted using an optical microscope at 40× magnification.

[6] = tested on: P. berghei sexual phases in An. stephensi; test: In vivo transmission-blocking assay, P. berghei infected CD1 mice, An. stephensi; set-up: species or system Plasmodium berghei; settings: positive control, 25 mg/kg x 2/12h
Procedure: For this assay, a colony of An. stephensi was used. The lab-reared An. stephensi was kept under controlled conditions, with a temperature of 26 °C ± 1 °C, a 12/12 h light/dark cycle, a relative humidity of 70% ± 10%, and fed a 30% sugar solution as needed.
Female CD1 mice (4 to 6 weeks old) were infected by intraperitoneal inoculation (i.p.) containing 10 million erythrocytes infected with P. berghei expressing the GFP fluorescent protein. After 4 days, when parasites in the sexual stages were detected via Giemsa-stained blood smears, mice with similar gametocytemia and parasitemia were randomly divided into three groups of two animals each. The groups of two mices were treated orally with compound 1 at two doses of 50 mg/kg, spaced 12 h apart. […] Following the second dose, mice were anesthetized and placed in individual cages containing approximately 50 female A. stephensi mosquitoes, which had been starved for 24 h before the assay. Blood feeding lasted for 30 min, after which unfed mosquitoes were removed. Engorged females were maintained in an insectary at 21 ± 1 °C and 60% relative humidity, receiving a 30% glucose solution.
A group of 10 mosquitoes was set aside to assess sporozoite development in salivary glands, following a protocol similar to the one described previously, with dissections performed 21 days postblood meal. Additionally, 10 μL of mouse blood was collected immediately after treatment with the compounds and incubated at room temperature for 15 min. Exflagellation was observed under optical microscopy to evaluate the effect of 4-quinolone-derived molecules on microgametocyte activity.

[7] = tested on: P. falciparum ATQ_R1 strain; test: SYBR Green growth assay, asexual blood stages, ATQ_R1 strain; assay type: cell-based, Plasmodium falciparum; settings: Plasmodium falciparum, 72 h
Procedure: as §4, §2, §5

[8] = tested on: P. falciparum oocyst development; set-up: method as in PMID 12878530, PMID 17361016; settings: studies primarily focused on P. falciparum; ref 27;28; cited from earlier work
[9] = tested on: P. falciparum DHODH strain; test: SYBR Green growth assay, asexual blood stages, DHODH resistant mutant; assay type: cell-based, Plasmodium falciparum; settings: Plasmodium falciparum, 72 h
Procedure: as §4, §2, §5

[10] = Plasmodium falciparum, 3D7, 72 h
[11] = Plasmodium falciparum, 3D7, 72 h, asexual blood stages, 3D7 sensitive strain, 72 h, read-out: IC50

Compound: CCCCCCCc1cc(O)c2ccccc2n1 [compound 5, 2-Heptylquinolin-4(1H)-one]
- Confluency % (Huh-7 cells; 1 μM): 100 ± 1%
- Confluency % (Huh-7 cells; 10 μM): 147 ± 3%
- Pf gametocytes inhibition [1]: no activity
- inhibition at 20 µM ([1]; Plasmodium falciparum, NF54, 48 h, read-out: Pf gametocytes Inhibition (%)): 25 ± 4%
- IC50 [2, 10]: 1000 ± 200 nM
- IC50 ([3]; Plasmodium berghei, Huh-7, 48 h): 0.3 ± 0.01 µM

Compound: 2-(4-Chlorophenyl)-6-morpholinoquinolin-4(1H)-one [compound 3]
- Pf gametocytes inhibition [1]: no activity
- IC50 ([2]; asexual blood stages, 3D7 sensitive strain, 72 h, read-out: IC50): 2900 nM
- IC50 ([3]; Huh-7 cells, 48 h after sporozoite addition): 0.64 ± 0.04 µM

Compound: CCN(CC)CCCC(C)Nc1ccnc2cc(Cl)ccc12 (stereo not shown) [Chloroquine, reference compound]
- IC50 [2, 10]: 6 ± 1 nM
- IC50 (P. falciparum 7G8 strain; 7G8, 72 h): 220 ± 80 nM
- IC50 (P. falciparum HB3 strain; HB3, 72 h): 6 ± 2 nM
- IC50 [4]: 170 ± 90 nM

Compound: O=c1cc(-c2ccc(N3CCOCC3)cc2)[nH]c2ccccc12 [compound 4, 2-(4-Morfolinofenil)-quinolin-4(1H)-one]
- Pf gametocytes inhibition [1]: no activity
- IC50 [2, 11]: > 10000 nM

Compound: CN(C)c1ccc2nc3ccc(=[N+](C)C)cc-3sc2c1 [MB, Methylene blue, reference compound]
- inhibition at 5 µM ([1]; Plasmodium falciparum, NF54, 48 h, control at 5 μM, 48 h, read-out: Pf gametocytes Inhibition (%)): 100%
- inhibition of exflagellation centers (ex vivo) [5]: completely inhibited
- inhibition at 5 µM ([5]; Plasmodium berghei, 0.25 h): 100%

Compound: COc1cc(NC(C)CCCN)c2ncccc2c1 (stereo not shown) [Primaquine, reference compound]
- inhibition of P. berghei oocysts (in vivo) [6]: 100%
- Confluency % (Huh-7 cells; 1 μM): 109 ± 10%
- Confluency % (Huh-7 cells; 10 μM): 104.0 ± 0.2%

Compound: CCc1nc(N)nc(N)c1-c1ccc(Cl)cc1 [Pyrimethamine, reference compound]
- IC50 [7]: > 10000 nM
- IC50 [2, 11]: 50 ± 8 nM
- IC50 (P. falciparum 7G8 strain; 7G8 strain, 72 h, read-out: IC50): 6000 ± 1000 nM
- IC50 (P. falciparum HB3 strain; HB3 strain, 72 h, read-out: IC50): 5200 ± 400 nM
- IC50 [4]: 6000 ± 2400 nM

Compound: OC(c1cc(C(F)(F)F)nc2c(C(F)(F)F)cccc12)C1CCCCN1 (stereo not shown) [mefloquine]
- concentration required to inhibit oocyst development [8]: around 10 μM

Compound: Cc1ccc(-c2cc(O)c3ccccc3n2)cc1 [compound 2, 2-p-Tolylquinolin-4(1H)-one]
- Confluency % (Huh-7 cells; 1 μM): 163 ± 14%
- Confluency % (Huh-7 cells; 10 μM): 104 ± 4%
- IC50 [2, 11]: 11000 nM
- IC50 ([3]; Plasmodium berghei, Huh-7 cells, 48 h after sporozoite addition): 1.3 ± 0.2 µM

Compound: CCCCN(CCCC)CCC(O)c1cc2c(Cl)cc(Cl)cc2c2cc(C(F)(F)F)ccc12 (stereo not shown) [halofantrine]
- concentration required to inhibit oocyst development [8]: around 10 μM

Compound: Cc1cc(Nc2ccc(S(F)(F)(F)(F)F)cc2)n2nc(C(C)(F)F)nc2n1 [DSM 265, reference compound]
- IC50 [9]: > 10000 nM

Compound: CCCCN(CCCC)CC(O)c1cc(Cl)cc2c1-c1ccc(Cl)cc1/C2=C/c1ccc(Cl)cc1 (stereo not shown) [lumefantrine]
- concentration required to inhibit oocyst development [8]: around 10 μM
